Laboratory results reported in article PMC8434884 (Journal of medicinal chemistry, 2020).
Entries after “also recorded” stand apart in the source; their conditions may differ.

How the values were obtained:
human h5-HT2AR = human h5-HT2AR (Homo sapiens, UniProt P28223); assay: 5-HT-induced Cai2+ release assay in h5-HT2AR-CHO cells; format: cell-based
CYP3A4 = CYP3A4 (Homo sapiens, UniProt P08684); assay: CYP3A4 inhibition; settings: 10 μM
CYP1A2 = molecular target: T1, CYP1A2 (Homo sapiens, UniProt P05177); assay: CYP1A2 inhibition; settings: 10 μM
T1 sequence (P05177 1-516): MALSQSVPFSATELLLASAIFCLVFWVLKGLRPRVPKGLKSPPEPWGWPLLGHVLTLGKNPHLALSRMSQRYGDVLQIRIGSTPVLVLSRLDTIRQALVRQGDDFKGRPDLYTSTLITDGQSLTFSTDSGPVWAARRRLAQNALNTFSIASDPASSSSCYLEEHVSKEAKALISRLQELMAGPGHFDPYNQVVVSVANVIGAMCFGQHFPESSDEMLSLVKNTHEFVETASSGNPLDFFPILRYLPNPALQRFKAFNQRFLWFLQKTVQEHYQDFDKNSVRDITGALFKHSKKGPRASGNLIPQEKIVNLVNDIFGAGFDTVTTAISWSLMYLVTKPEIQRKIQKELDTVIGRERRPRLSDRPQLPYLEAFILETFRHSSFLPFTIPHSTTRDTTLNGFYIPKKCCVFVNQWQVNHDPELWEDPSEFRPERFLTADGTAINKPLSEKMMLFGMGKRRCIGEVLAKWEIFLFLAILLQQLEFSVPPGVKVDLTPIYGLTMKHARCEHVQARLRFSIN

kinetic solubility = settings: 2 h
CYP2D6 = CYP2D6 (Homo sapiens, UniProt P10635); assay: CYP2D6 inhibition; settings: 10 μM
CYP2C9 = CYP2C9 (Homo sapiens, UniProt P11712); assay: CYP2C9 inhibition; settings: 10 μM
[1] = molecular target: T2, human 5-HT2CR (unedited INI isoform) (Homo sapiens, UniProt P28335); settings: h5-HT2CR-CHO cells
T2 sequence (P28335 33-458): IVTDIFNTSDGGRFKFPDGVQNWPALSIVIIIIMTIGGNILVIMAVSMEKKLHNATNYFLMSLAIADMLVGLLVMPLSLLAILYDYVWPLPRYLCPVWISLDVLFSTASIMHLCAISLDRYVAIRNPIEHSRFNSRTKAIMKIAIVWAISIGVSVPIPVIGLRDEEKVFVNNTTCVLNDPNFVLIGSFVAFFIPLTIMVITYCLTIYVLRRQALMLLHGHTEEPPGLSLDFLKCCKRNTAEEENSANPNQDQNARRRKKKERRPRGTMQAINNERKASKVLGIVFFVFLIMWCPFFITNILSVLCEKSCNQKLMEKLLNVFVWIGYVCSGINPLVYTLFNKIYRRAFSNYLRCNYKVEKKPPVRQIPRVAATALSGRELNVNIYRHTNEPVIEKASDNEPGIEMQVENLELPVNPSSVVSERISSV

male Sprague–Dawley rats = assay: WAY163909 versus saline two-lever drug discrimination assay; format: in vivo, rat; settings: 12 alone 0.5–5 mg/kg ip
[2] = rat liver microsomal clearance; settings: microsomes
α 1B = molecular target: T3, α 1B (Homo sapiens, UniProt P35368); assay: NIMH PDSP radioligand binding displacement, α 1B; settings: read-out: % inhibition (10 μM)
T3 sequence (P35368 1-520): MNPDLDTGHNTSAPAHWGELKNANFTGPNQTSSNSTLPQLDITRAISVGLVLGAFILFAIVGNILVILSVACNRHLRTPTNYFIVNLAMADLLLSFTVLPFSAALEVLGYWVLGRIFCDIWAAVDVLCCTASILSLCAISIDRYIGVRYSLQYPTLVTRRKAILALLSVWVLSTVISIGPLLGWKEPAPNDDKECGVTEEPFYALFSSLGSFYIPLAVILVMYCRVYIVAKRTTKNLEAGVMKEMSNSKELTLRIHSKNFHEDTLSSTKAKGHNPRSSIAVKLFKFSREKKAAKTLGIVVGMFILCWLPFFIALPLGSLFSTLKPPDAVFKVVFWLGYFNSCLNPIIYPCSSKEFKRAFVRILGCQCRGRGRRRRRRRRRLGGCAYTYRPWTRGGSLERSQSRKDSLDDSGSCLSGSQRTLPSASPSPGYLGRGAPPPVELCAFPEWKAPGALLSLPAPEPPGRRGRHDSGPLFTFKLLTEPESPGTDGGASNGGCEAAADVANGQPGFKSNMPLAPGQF

CYP2C19 = CYP2C19 (Homo sapiens, UniProt P33261); assay: CYP2C19 inhibition; settings: 10 μM
Sequence of CYP2C19 (P33261 whole entry): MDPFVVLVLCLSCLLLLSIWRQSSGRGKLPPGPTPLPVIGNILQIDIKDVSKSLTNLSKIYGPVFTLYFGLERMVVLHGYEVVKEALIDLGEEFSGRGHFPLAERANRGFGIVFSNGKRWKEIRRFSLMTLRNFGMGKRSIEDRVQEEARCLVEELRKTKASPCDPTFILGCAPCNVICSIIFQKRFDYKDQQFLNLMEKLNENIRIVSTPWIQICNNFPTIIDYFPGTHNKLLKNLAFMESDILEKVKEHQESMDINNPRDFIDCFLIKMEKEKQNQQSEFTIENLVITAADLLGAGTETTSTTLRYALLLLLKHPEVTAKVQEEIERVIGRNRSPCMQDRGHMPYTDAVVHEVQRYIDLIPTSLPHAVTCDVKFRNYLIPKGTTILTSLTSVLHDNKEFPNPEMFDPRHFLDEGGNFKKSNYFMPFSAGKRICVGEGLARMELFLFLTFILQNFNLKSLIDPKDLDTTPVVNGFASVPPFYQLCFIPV

Sequence of human h5-HT2AR (P28223 whole entry): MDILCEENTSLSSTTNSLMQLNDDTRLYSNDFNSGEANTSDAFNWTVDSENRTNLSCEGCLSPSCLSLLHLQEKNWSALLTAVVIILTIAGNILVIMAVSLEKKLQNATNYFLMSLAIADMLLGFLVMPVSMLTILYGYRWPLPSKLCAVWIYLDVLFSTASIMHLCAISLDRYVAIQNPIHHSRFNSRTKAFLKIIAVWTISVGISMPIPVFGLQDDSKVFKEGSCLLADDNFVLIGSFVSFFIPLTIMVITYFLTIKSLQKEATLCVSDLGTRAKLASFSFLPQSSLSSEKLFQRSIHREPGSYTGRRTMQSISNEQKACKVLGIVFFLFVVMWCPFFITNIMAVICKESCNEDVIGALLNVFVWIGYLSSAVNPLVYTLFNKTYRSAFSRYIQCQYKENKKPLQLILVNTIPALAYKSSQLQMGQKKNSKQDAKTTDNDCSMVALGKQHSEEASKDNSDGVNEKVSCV
Sequence of CYP3A4 (P08684 whole entry): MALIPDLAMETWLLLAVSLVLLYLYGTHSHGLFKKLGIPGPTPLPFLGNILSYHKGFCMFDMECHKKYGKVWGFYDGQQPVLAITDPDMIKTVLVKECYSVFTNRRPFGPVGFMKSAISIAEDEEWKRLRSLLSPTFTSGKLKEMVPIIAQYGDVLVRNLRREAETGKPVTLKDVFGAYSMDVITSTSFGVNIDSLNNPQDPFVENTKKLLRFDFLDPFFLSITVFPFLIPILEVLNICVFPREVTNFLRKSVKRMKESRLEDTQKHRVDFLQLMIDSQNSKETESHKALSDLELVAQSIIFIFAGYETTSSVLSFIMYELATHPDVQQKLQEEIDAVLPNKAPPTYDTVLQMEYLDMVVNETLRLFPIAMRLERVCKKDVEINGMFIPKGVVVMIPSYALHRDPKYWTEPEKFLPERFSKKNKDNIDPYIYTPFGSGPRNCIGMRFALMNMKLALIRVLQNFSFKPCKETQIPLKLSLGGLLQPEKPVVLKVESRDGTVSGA
Sequence of CYP2D6 (P10635 whole entry): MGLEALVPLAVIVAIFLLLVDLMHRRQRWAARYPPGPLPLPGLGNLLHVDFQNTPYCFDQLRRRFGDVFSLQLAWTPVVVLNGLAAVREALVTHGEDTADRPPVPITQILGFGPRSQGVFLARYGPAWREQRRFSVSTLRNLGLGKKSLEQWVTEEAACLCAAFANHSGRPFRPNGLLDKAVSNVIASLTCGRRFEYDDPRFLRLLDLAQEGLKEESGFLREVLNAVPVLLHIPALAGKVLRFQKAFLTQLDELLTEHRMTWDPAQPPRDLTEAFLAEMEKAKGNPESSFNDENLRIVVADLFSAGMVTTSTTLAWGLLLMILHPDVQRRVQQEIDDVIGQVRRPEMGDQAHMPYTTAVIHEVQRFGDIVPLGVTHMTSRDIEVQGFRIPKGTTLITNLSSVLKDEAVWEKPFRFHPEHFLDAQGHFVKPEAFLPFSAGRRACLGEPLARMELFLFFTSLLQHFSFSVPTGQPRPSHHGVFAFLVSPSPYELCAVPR
Sequence of CYP2C9 (P11712 whole entry, canonical isoform): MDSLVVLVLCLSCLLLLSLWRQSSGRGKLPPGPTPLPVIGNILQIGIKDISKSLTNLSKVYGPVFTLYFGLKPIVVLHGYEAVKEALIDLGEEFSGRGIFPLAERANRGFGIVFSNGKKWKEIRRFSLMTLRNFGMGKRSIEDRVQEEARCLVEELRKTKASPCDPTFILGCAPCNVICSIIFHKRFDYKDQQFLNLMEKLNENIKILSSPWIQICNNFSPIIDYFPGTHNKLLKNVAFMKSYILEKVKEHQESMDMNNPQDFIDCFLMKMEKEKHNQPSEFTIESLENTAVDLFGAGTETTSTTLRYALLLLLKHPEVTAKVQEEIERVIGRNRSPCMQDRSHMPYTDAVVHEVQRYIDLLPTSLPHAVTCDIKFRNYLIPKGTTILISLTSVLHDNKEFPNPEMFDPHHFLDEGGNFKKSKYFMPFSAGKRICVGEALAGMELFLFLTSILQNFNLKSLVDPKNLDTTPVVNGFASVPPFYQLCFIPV

## O=C(NC[C@H](O)CO)[C@@H]1C[C@H](c2ccccc2)CCN1 (mixture of isomers) [Compound 12, (2,4-cis)-N-((S)-2,3-Dihydroxypropyl)-4-phenylpiperidine-2-carboxamide]
Human h5-HT2AR
  alteration of Emax or EC50 of 5-HT-induced Cai2+ release (in words): no alteration in the Emax or EC50; also recorded: inactive as an agonist or allosteric modulator
CYP3A4
  CYP3A4 inhibition: 0.0% (10 μM)
CYP1A2
  CYP1A2 inhibition: 11.8% (10 μM)
Kinetic solubility
  kinetic solubility (PBS; pH 7.4): highly soluble
CYP2D6
  CYP2D6 inhibition: 1.9% (10 μM)
CYP2C9
  CYP2C9 inhibition: 0.0% (10 μM)
[1]; 1 nM, 5-HT-induced Cai2+ release
  5-HT2CR positive allosteric modulator activity (in words): significant PAM activity
[1]; compound added 15 min before 5-HT
  intrinsic agonist activity to induce Cai2+ release prior to addition of 5-HT: did not exhibit intrinsic activity
Male Sprague–Dawley rats
  response rates (in words): no change in response rates
Male Sprague–Dawley rats; 30 min prior to testing
  substitution for WAY163909 (lever responding, in words): evoked saline lever responding
[2]
  microsomal CLint at 10 μM: < 9.6 µL/min/mg
α 1B
  inhibition at 10 µM: -11%
CYP2C19
  CYP2C19 inhibition: 0.0% (10 μM)
